According to patent publication US20160346255A1, “METHODS, AGENTS AND COMPOSITIONS FOR TREATMENT OF INFLAMMATORY CONDITIONS” (Betanien Hospital, priority 2014, published 2016):
Non-standard residues stand in square brackets, D forms with d. Residues, ends and D or L forms follow the SMILES beside them. *: point of attachment. dPhe(4-NHCONH2) = NC(=O)Nc1ccc(C[C@@H](N)C(=O)O)cc1; Dihydroorotyl(S) = O=C1C[C@@H](C(=O)*)NC(=O)N1; dPhe(4-Cl) = N[C@H](Cc1ccc(Cl)cc1)C(=O)O; Phe(4-NH2) = Nc1ccc(C[C@H](N)C(=O)O)cc1; d2Nal = N[C@H](Cc1ccc2ccccc2c1)C(=O)O; Lys(iPr) = CC(C)NCCCC[C@H](N)C(=O)O; d3Pal = N[C@H](Cc1cccnc1)C(=O)O

Tested on: Patient with Multiple Sclerosis
Test: Multiple sclerosis patient treated with degarelix (with concomitant fampridine)
Assay type: in vivo, human
Protocol: • person, diagnosed with multiple sclerosis (MS). Their MS was of the progressive type; characterized by a steady deterioration in function. • Fulfilled the 2010 McDonald Criteria for the diagnosis of MS (1).
• So far results of clinical trials for progressive MS have generally been disappointing. Currently, there is no FDA-approved treatment for progressive MS disease. • December 2014 received first dose of degarelix 240 mg s.c. • Received degarelix 80 mg s.c. every two weeks thereafter.
• This patient's EDSS has remained stable at 6.5, as expected over such a short time period of 6 weeks. A score of 6.5 is equivalent to only being able to walk with the aid of a walker, as in their case. This was evident at baseline and 6 weeks.
• Patient-reported outcomes are of increasing importance in trials of progressive multiple sclerosis (2). The most frequently used global patient-reported outcome in multiple sclerosis is the MSIS-29 (3). This has been correlated with clinical and imaging metrics specifically in progressive forms of the disease (4). According to a recent review (2), patient reported outcomes in trials of progressive multiple sclerosis can be used to validate MRI or clinical metrics, and increased use of patient-reported outcomes in trials of progressive multiple sclerosis will be expected to help satisfy regulators' requirements that treatments show relevant benefit for patients. • At baseline, they scored 121 on the MSIS-29. By 6 weeks, their score was reduced to 110. A clinically significant minimal difference is a score change of 8. Therefore this reduction of 11 in their score is considered clinically significant (5).
• The MSWS-12 (6) was designed as a disease-specific patient-based instrument for use in clinical trials and clinical practice, to capture the complex impact of MS on walking ability. […] One of the most important attributes of the MSWS-12 in comparison to other assessments of walking in MS patients is its responsiveness to change. […] By 6 weeks, their score was reduced to 53. This is a 12% improvement. A minimal clinically significant difference has not yet been established.
• The MFIS-5 is a modified form of the Fatigue Impact Scale (10) based on items derived from interviews with MS patients concerning how fatigue impacts their lives. This instrument provides an assessment of the effects of fatigue in terms of physical, cognitive, and psychosocial functioning. • At baseline, they scored 20 on the MFIS-5. By 6 weeks, their score was reduced to 12. This was a reduction of 40%, which is clinically significant.
• The T25FW is another common endpoint in trials. At baseline, they took 16.7 seconds to walk 25 feet, and by 6 weeks they took 15.2 seconds. This improvement in walking speed supports the patient's reported improved outcomes. […] This improvement in progressive MS is likely to also be observed in the relapsing-remitting type of MS. This is because the relapsing-remitting type gives similar signs and symptoms as the progressive type to patients over time.
• For the last 2.5 years, they had been taking stable concomitant fampridine, a potassium channel blocker, for symptomatic treatment for MS. Their MS disease activity had been increasing gradually over these 2.5 years, requiring them to use crutches, and eventually a walker. In December 2014, they started experimental treatment with degarelix. […] They describe in an interview that for the first time they could easily complete certain exercises with their under extremities that they had previously never been able to do during their physiotherapy visits. • Due to this effect, they decided to discontinue their long-term stable fampridine medication on 05.04.15. […] This improvement in progressive MS is likely to also be observed in the relapsing-remitting type of MS. This is because the relapsing-remitting type gives similar signs and symptoms as the progressive type to patients over time.

[1] = progressive MS patient, by 6 weeks

CC(=O)N[C@H](Cc1ccc2ccccc2c1)C(=O)N[C@H](Cc1ccc(Cl)cc1)C(=O)N[C@H](Cc1cccnc1)C(=O)N[C@@H](CO)C(=O)N[C@@H](Cc1ccc(NC(=O)[C@@H]2CC(=O)NC(=O)N2)cc1)C(=O)N[C@H](Cc1ccc(NC(N)=O)cc1)C(=O)N[C@@H](CC(C)C)C(=O)N[C@@H](CCCCNC(C)C)C(=O)N1CCC[C@H]1C(=O)N[C@H](C)C(N)=O [degarelix] (Ac-[d2Nal][dPhe(4-Cl)][d3Pal]S[Phe(4-NH2)](Dihydroorotyl(S))[dPhe(4-NHCONH2)]L[Lys(iPr)]P[dA]-NH2)
Timed walk test (MS patient, 29.4.15, after fampridine discontinued 05.04.15, from 11.9): 14.0 s | Expanded Disability Status Scale (EDSS) (progressive MS patient, 6 weeks, stable vs baseline): 6.5 | MFIS-5 reduction [1]: 40% | MSIS-29 score reduction [1]: 11 | MSWS-12 improvement [1]: 12% | MFIS-5 score (progressive MS patient, by 6 weeks, baseline 20): 12 | MSWS-12 score (progressive MS patient, by 6 weeks, baseline 60): 53 | MSIS-29 score (progressive MS patient, by 6 weeks, baseline 121): 110 | Timed 25 Foot Walk (T25FW) (progressive MS patient, by 6 weeks, stable fampridine, baseline 16.7): 15.2 s | General function (patient reported) (progressive MS patient, from around 4 weeks, further by 6 weeks): general improvement
